{"source": "patent US20230219898A1", "about": "“COMPOUNDS AND METHODS FOR BLOCKING APOPTOSIS AND INDUCING AUTOPHAGY” (President and Fellows of Harvard College, priority 2020, published 2023)", "key": {"TRADD-N": {"target": "T1, TRADD-N (Homo sapiens, UniProt Q15628)", "T1 construct": "expression constructs encoding Flag-TRADD-N(1-179) and HA-TRADD-C(180-312); His (N); made in house", "T1 sequence (Q15628 1-179)": "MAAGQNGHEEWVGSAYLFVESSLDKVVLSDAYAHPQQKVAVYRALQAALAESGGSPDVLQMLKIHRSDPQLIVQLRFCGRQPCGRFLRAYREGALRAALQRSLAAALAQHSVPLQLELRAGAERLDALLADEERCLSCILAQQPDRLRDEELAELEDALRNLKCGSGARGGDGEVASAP", "experiment": "STD-NMR binding to TRADD-N", "conditions": "1 mM compound, 13 μM TRADD-N", "procedure": "The on-resonance irradiation of TRADD-N was performed at a chemical shift of −0.5 ppm, whereas the off-resonance irradiation was conducted at 37 ppm. Spectra were acquired using the following parameters: spectral window of 6.4 kHz, number of scans at 320, acquisition time of 2 s, and repetition time of 3 s. The decrease in signal intensity in STD spectrum, resulting from the transfer of saturation from the protein to the ligand, is evaluated by subtracting the on-resonance spectrum from the off-resonance spectrum. This subtraction yields a positive signal from a bound ligand. The asterisks indicate the signals of the compounds.\nThis saturation quickly propagates throughout the protein by spin diffusion and is transferred to the ligand, which only occurs if it is bound, leading to reduced intensities of the ligand. The STD spectra were acquired on a 400 MHz spectrometer (ICCB-19 and Apt-1) or 800 MHz spectrometer (ICCB-19i). The samples for STD NMR were prepared as 13 μM TRADD-N or TRADD-N(G121A) with 1 mM Apt-1, ICCB-19 or ICCB-19i in 0.5 mL of PBS in D2O (10%). […] The decrease in signal intensity in STD spectrum, resulting from the transfer of saturation from the protein to the ligand, is evaluated by subtracting the on-resonance spectrum from the off-resonance spectrum."}, "[1]": {"tested_on": "Beclin 1/Vps34 kinase complex", "experiment": "Vps34 lipid kinase assay on Beclin 1/Vps34 complex from treated HEK293T cells", "type": "cell-based", "conditions": "10 μM, 6 h", "procedure": "FIG. 6j Beclin 1/Vps34 kinase complex isolated from Flag-Beclin 1 transfected HEK293T cells treated with ICCB-19, Apt-1, or ICCB-19i (10 μM) for 6 h. PI3P kinase activity was measured by in vitro lipid kinase assay using ADP-Glo Kinase Assay Kit. Wortmannin (10 μM) was used as a control to inhibit Vps34 kinase activity. Mean±s.d. from technical quadruplicates (n=4), representative of 3 independent experiments. One-way ANOVA, post hoc Dunnett's tests. ***P=0.0003; ***P<0.001 (left to right).\nWT mice (n=10, male, 8 weeks of age) were injected intravenously via the tail vein with mTNFα (9.5 μg/mouse) after an intraperitoneal injection of Apt-1 (20 mg/kg) 30 min before. Control mice (n=9) received an equal amount of vehicle 30 min before mTNFα challenge. Kaplan Meier survival curve was determined. 25. Vps34 lipid kinase assay HEK293T cells were transfected with Flag-Beclin 1 for 18 h and then treated with ICCB-19, ICCB-19i, Apt-1 (10 μM) for another 6 h. Flag-Beclin 1 was immunoprecipitated by anti-Flag to isolate Beclin 1/Vps34 complex. Immunoprecipitated beads were added with sonicated phosphatidylinositol (1 μl of 5 mg) and ATP (1 μl of 10 mM) in 30 μl reaction buffer (40 mM Tris (pH 7.5), 20 mM MgCl2, 1 mg/ml BSA) for 30 min at room temperature. […] The conversion of ATP into ADP levels was measured by an ADP-Glo Kinase Assay Kit (Promega) according to the manufacturer's instructions."}, "[2]": {"tested_on": "Htt-103Q, α-synuclein and tau expressing cells", "experiment": "Misfolded protein accumulation and cell death in cell models (Htt-103Q, α-synuclein, tau)", "type": "cell-based", "conditions": "10 μM", "procedure": "Nuclei were labeled with DAPI. The amount of Htt-Q103-EGFP aggregates per mm^2 was quantified using ImageJ. Scale bar is 100 μm. Cell viability was measured by CellTiter-Glo assay. Survival rate is compared with vehicle-treated cells. Mean ±s.d. from technical triplicates (n=3), representative of 3 independent experiments. One-way ANOVA, post hoc Dunnett's tests. ***P<0.001; n.s. not significant, (P=0.8556, 0.9195, 0.8613, 0.5687, 0.5304, 0.9998, 0.6029, 0.2821 (left to right)).\nRFP-α-Synuclein was quantified by Fluorescence/Cell (RLU) by ImageJ.\nMean ±s.d. from technical triplicates (n=3), representative of 3 independent experiments. Two-way ANOVA, post hoc Bonferroni's tests. ***P<0.001; *P=0.0262, 0.0367 (left to right).\nMean ±s.d. from technical triplicates (n=3), representative of 3 independent experiments. Two-way ANOVA, post hoc Bonferroni's tests."}, "MEFs": {"tested_on": "MEFs", "experiment": "Necroptosis of MEFs induced by TNFα/5z7/zVAD", "type": "cell-based, mouse", "conditions": "10 μM", "procedure": "The concentrations of reagents used: mTNFα: 1 ng/mL; (5Z)-7-oxozeaenol: 0.5 μM; zVAD: 20 μM; ICCB-19: 10 μM; Apt-1: 10 μM; Nec-1s: 10 μM. Mean s.d. from technical triplicates (n=3), representative of 3 independent experiments."}, "H4-GFP-LC3 cells": {"tested_on": "H4-GFP-LC3 cells", "experiment": "Autophagy induction, GFP-LC3 puncta and LC3II immunoblotting", "type": "cell-based", "conditions": "10 μM, 6 h (zVAD.fmk 20 μM)", "procedure": "Mean ±s.e.m. (n=5). One-way ANOVA, post hoc Dunnett's test.\nAutophagy was determined by LC3II levels using immunoblotting. SE=shorter exposure, LE=longer exposure.\nAutophagy was measured by LC3II induction and p62 reduction by immunoblotting. The levels of LC3II in cells treated with both Apt-1 and NH4Cl, the latter of which inhibits lysosome, were higher than that treated with either Apt-1 or NH4Cl alone. Thus, ICCB-19/Apt-1, but not ICCB-19i, induce autophagic flux. Mean ±s.e.m. from technical triplicates (n=3), representative of 3 independent experiments. Two-tailed t-test. **P=0.0037.\nLevels of LC3II determined by immunoblotting.\nCells were seeded at 2.5×10^4 cells per well on poly-L-lysine coated glass cover slips and transfected as described. Cells were fixed in 4% paraformaldehyde, followed by permeabilization with 0.1% Triton X-100. Nuclei were stained using DAPI (Sigma). Cells expressing GFP or RFP-fusion proteins were imaged with an Olympus Fluoview FV1000 confocal microscope (Olympus) using a 40×objective. For GFP-LC3 and DsRed-FYVE puncta quantification, the average spot intensity in 1000 cells from each indicated sample was determined. Images were processed using ImageJ and Photoshop CC. Concentration of compounds used to induce or block autophagy: 10 μM (Apt-1, ICCB-19, ICCB-19i or Spautin-1), for 6 h or as indicated."}}}
{"smiles": "O=C(CSC1=NCCN1)NC1CCCCCC1", "note": "[ICCB-19]", "values": [{"measurement": "binding with TRADD-N by STD-NMR", "setting": "TRADD-N", "value": "could bind with TRADD-N"}, {"measurement": "Vps34 lipid kinase activity", "setting": "[1]", "value": "increased Vps34 lipid kinase activity"}, {"measurement": "protein accumulation and cell death with Htt-103Q, α-synuclein, tau", "setting": "[2]", "value": "reduced protein accumulation and cell death"}, {"measurement": "inhibition of necroptosis", "setting": "MEFs", "value": "partially inhibited"}, {"measurement": "induction of autophagy", "setting": "H4-GFP-LC3 cells", "value": "effectively induced autophagy"}]}
{"smiles": "CN1CCN=C1SC(C(=O)NC1CCCCCC1)c1ccccc1", "note": "(stereo not shown) [Compound 30]", "values": [{"measurement": "binding with TRADD-N by STD-NMR", "setting": "TRADD-N", "value": "could bind with TRADD-N"}, {"measurement": "Vps34 lipid kinase activity", "setting": "[1]", "value": "increased Vps34 lipid kinase activity"}, {"measurement": "protein accumulation and cell death with Htt-103Q, α-synuclein, tau", "setting": "[2]", "value": "reduced protein accumulation and cell death"}, {"measurement": "inhibition of necroptosis", "setting": "MEFs", "value": "partially inhibited"}, {"measurement": "induction of autophagy", "setting": "H4-GFP-LC3 cells", "value": "effectively induced autophagy"}]}
